According to patent publication US20250313546A1, “NUCLEIC ACID BINDERS” (UNIVERSITY OF STRATHCLYDE, priority 2022, published 2025):
pIC50: −log10 of the molar value. Values after ≈ are worked out from the molar mass of the structure shown.

What was measured:
[1] = test system: Staphylococcus aureus (ATCC 43300); test: Antibacterial MIC, broth microdilution (CLSI); assay type: cell-based; conditions: for MIC80: Staphylococcus aureus, ATCC43300, read-out: MIC80 S. aureus; for S. aureus Selectivity Indices, Group: SI, IC50 (μM)/MIC80 (μM), HEK293 cytotoxicity
[2] = test system: Enterococcus faecalis (ATCC 51299); test: Antibacterial MIC, broth microdilution (CLSI); assay type: cell-based; conditions: for MIC80: Enterococcus faecalis, ATCC51299, read-out: MIC80 E. faecalis
[3] = test system: Escherichia coli (ATCC 25922); test: Antibacterial MIC, broth microdilution (CLSI); assay type: cell-based; conditions: for MIC80: Escherichia coli, ATCC25922, read-out: MIC80 E. coli
[4] = test system: T. vaginalis; test: Trichomonas resorufin assay; assay type: cell-based; conditions: for pIC50: Trichomonas vaginalis, read-out: IC50 T. vaginalis
[5] = test system: Genomic double stranded DNA (salmon); test: Fluorescence intercalator displacement (FID) assay, SYBR-safe probe; conditions: 20 μM compound, 30° C., lower % = stronger binding
Method: (§1) The ability of compounds of the invention to bind to DNA and RNA was assessed using a fluorescence intercalator displacement assay. Genomic double stranded DNA (salmon) or PolyAU double stranded RNA is treated with probe molecule (Sybr-Safe) that increases its fluorescence upon binding to nucleic acids.
(§2) polyAU RNA (Polyadenylic acid—Polyuridylic acid sodium salt, double-stranded homopolymer, P1537, Merck) or genomic DNA (Deoxyribonucleic acid sodium salt from salmon testes, D1626, Merck) was dissolved in 1 mM pH 7.4 phosphate buffer (containing 0.27 mM potassium chloride, 13.7 mM sodium chloride) to a concentration of 1 mg/mL in, SybrSafe (SYBR® Safe DNA Gel Stain, ×10,000 in DMSO, S33102 Invitrogen) was used as supplied by the manufacturer in DMSO, and compounds of the invention were prepared as 10 mM stocks in DMSO. These stock solutions were diluted appropriately with each other and 1 mM phosphate buffer to give test solutions comprised of 20 μM compound of the invention, 12500-fold dilution of SybrSafe and 3.76 ng/mL RNA/DNA. Control solutions of RNA/DNA and SybrSafe, RNA/DNA, and SybrSafe at these concentrations were also prepared. Test and control solutions were heated to 30° C. and the fluorescence of each solution was measured using the SYBER filter setting of a StepOnePlus using melt analysis mode (StepOne Software v2.3). The reduction of fluorescence due to the binding of the compound of the invention to the RNA/DNA was calculated as a normalised percentage based on the fluorescence measured due to the control with SybrSafe and RNA/DNA as maximum and the control with only SybrSafe as minimum.
(§3) A reduction in normalised % is indicative of probe displacement and thus strong nucleic acid binding.

[6] = test system: PolyAU double stranded RNA; test: as above; conditions: 20 μM compound, 30° C., lower % = stronger binding
Method: as §1, §2, §3

[7] = test system: A. fumigatus A1160 (MFIG001); conditions: Aspergillus fumigatus, read-out: MIC99 A. fumigatus A1160

Compound	MIC80 [1] [µM]	MIC80 [2] [µM]	MIC80 [3] [µM]	pIC50 [4]	% Normalised Fluorescence with gDNA [5] [%]	% Normalised Fluorescence with polyAU RNA [6] [%]	S. aureus Selectivity Indices, Group ([1]; Amides)	E. faecalis Selectivity Indices, Group ([2]; SI, IC50 (μM)/MIC80 (μM), HEK293 cytotoxicity, Amides)	E. faecalis Selectivity Index (SI) ([2]; SI, IC50 (μM)/MIC80 (μM), HEK293 cytotoxicity, numeric value)	T. vaginalis Selectivity Indices, Group ([4]; SI, IC50 (μM)/IC50 (μM), HEK293 cytotoxicity, Amides)	T. vaginalis Selectivity Index (SI) ([4]; SI, IC50 (μM)/IC50 (μM), HEK293 cytotoxicity, numeric value)	MIC99 [7] [mg/L]	S. aureus Selectivity Indices, Group ([1]; Alkyl Amidines and NH Pyrroles)	MIC80 S. aureus ([1]; MIC at 80% inhibition, ATCC 43300)	MIC80 E. faecalis ([2]; MIC at 80% inhibition, ATCC 51299)	MIC80 E. coli ([3]; MIC at 80% inhibition, ATCC 25922)
CC(C)NC(=O)c1cc(NC(=O)c2cc(NC(=O)c3ccc(/C=C/c4cnc5ccccc5c4)cc3)cn2C)cn1C [IVa4, (E)-N-isopropyl-1-methyl-4-(1-methyl-4-(4-(2-(quinolin-3-yl)vinyl)benzamido)-1H-pyrrole-2-carboxamido)-1H-pyrrole-2-carboxamide]	< 5	25 to 100 (≈ 14 to 56.1 µg/mL)	> 100	4.30 to 5.30	15	81	–	–	–	–	–	–	–	–	–	–
CCCCNC(=O)c1cc(NC(=O)c2cc(NC(=O)c3ccc(/C=C/c4cnc5ccccc5c4)cc3)cn2C)cn1C [IVa5, (E)-N-butyl-1-methyl-4-(1-methyl-4-(4-(2-(quinolin-3-yl)vinyl)benzamido)-1H-pyrrole-2-carboxamido)-1H-pyrrole-2-carboxamide]	< 5	< 5	> 100	5.30 to 6.00	51	12	B (Group B: 1.4 < SI <= 3)	C (Group: C, 1.5 < SI <= 5)	2	C (Group C: SI > 0.5)	2	–	–	–	–	–
Cn1cc(NC(=O)c2cc(NC(=O)c3ccc(/C=C/c4cnc5ccccc5c4)cc3)cn2C)cc1C(=O)NCCOCCOCCO [IVa7, (E)-N-(2-(2-(2-hydroxyethoxy)ethoxy)ethyl)-1-methyl-4-(1-methyl-4-(4-(2-(quinolin-3-yl)vinyl)benzamido)-1H-pyrrole-2-carboxamido)-1H-pyrrole-2-carboxamide]	5 to 25 (≈ 3.25 to 16.3 µg/mL)	> 100	> 100	4.30 to 5.30	65	92	–	–	–	–	–	–	–	–	–	–
[H]/N=C(\CCNC(=O)c1cc(NC(=O)c2cc(NC(=O)c3ccc(C=Cc4ccc5nonc5c4)cc3)cn2C)cn1C)NC [Ia3, (E)-4-(4-(2-(benzo[c][1,2,5]oxadiazol-5-yl)vinyl)benzamido)-N-(5-((3-imino-3-(methylamino)propyl)carbamoyl)-1-methyl-1H-pyrrol-3-yl)-1-methyl-1H-pyrrole-2-carboxamide]	< 5	–	> 100	–	13	38	–	–	–	–	–	< 5	–	–	–	–
COc1cccc(/C=C/c2ccc(C(=O)Nc3cc(C(=O)Nc4cc(C(=O)NCCC(=N)NC(C)C)n(C)c4)n(C)c3)cc2)c1 [Ia19, (E)-N-(3-imino-3-(isopropylamino)propyl)-4-(4-(4-(3-methoxystyryl)benzamido)-1-methyl-1H-pyrrole-2-carboxamido)-1-methyl-1H-pyrrole-2-carboxamide]	5 to 25 (≈ 3.05 to 15.2 µg/mL)	5 to 25 (≈ 3.05 to 15.2 µg/mL)	25 to 100 (≈ 15.2 to 61 µg/mL)	4.30 to 5.30	10	8	–	–	–	–	–	–	B (Group B: 3 < SI <= 5)	–	–	–
COc1cccc(/C=C/c2ccc(C(=O)Nc3cc(C(=O)Nc4cc(C(=O)NCCC(=N)NC(C)C)n(C)c4)n(C)c3)cn2)c1 [Ia23, (E)-N-(5-((5-((3-imino-3-(isopropylamino)propyl)carbamoyl)-1-methyl-1H-pyrrol-3-yl)carbamoyl)-1-methyl-1H-pyrrol-3-yl)-6-(3-methoxystyryl)nicotinamide]	25 to 100 (≈ 15.3 to 61.1 µg/mL)	> 100	> 100	4.30 to 5.30	41	25	–	–	–	–	–	–	–	–	–	–
[H]/N=C(\CCNC(=O)c1cc(NC(=O)c2cc(NC(=O)c3ccc(C=Cc4ccc5nonc5c4)cc3)cn2C)cn1C)NCCOCCOCCOC [Ia40, (E)-4-(4-(2-(benzo[c][1,2,5]oxadiazol-5-yl)vinyl)benzamido)-N-(5-((12-imino-2,5,8-trioxa-11-azatetradecan-14-yl)carbamoyl)-1-methyl-1H-pyrrol-3-yl)-1-methyl-1H-pyrrole-2-carboxamide]	< 5	5 to 25 (≈ 3.63 to 18.1 µg/mL)	> 100	–	32	13	–	–	–	–	–	–	–	–	–	–
CN1CCN(CCNC(=N)CCNC(=O)c2cc(NC(=O)c3cc(NC(=O)c4ccc(/C=C/c5cnc6ccccc6c5)cc4)cn3C)cn2C)CC1 [Ia41, (E)-N-(3-imino-3-((2-(4-methylpiperazin-1-yl)ethyl)amino)propyl)-1-methyl-4-(1-methyl-4-(4-(2-(quinolin-3-yl)vinyl)benzamido)-1H-pyrrole-2-carboxamido)-1H-pyrrole-2-carboxamide]	5 to 25 (≈ 3.57 to 17.9 µg/mL)	25 to 100 (≈ 17.9 to 71.5 µg/mL)	> 100	–	16	6	–	–	–	–	–	–	–	–	–	–
[H]/N=C(\CCNC(=O)c1cc(NC(=O)c2cc(NC(=O)c3ccc(C=Cc4ccc5nonc5c4)cc3)cn2C)cn1C)NCCN1CCN(C)CC1 [Ia42, (E)-4-(4-(2-(benzo[c][1,2,5]oxadiazol-5-yl)vinyl)benzamido)-N-(5-((3-imino-3-((2-(4-methylpiperazin-1-yl)ethyl)amino)propyl)carbamoyl)-1-methyl-1H-pyrrol-3-yl)-1-methyl-1H-pyrrole-2-carboxamide]	5 to 25 (≈ 3.53 to 17.6 µg/mL)	5 to 25 (≈ 3.53 to 17.6 µg/mL)	> 100	–	20	4	–	–	–	–	–	–	–	–	–	–
[H]/N=C(\CCNC(=O)c1cc(NC(=O)c2cc(NC(=O)c3ccc(C=Cc4ccc5nonc5c4)cc3)cn2C)cn1C)NCCc1ccccc1 [Ia43, (E)-4-(4-(2-(benzo[c][1,2,5]oxadiazol-5-yl)vinyl)benzamido)-N-(5-((3-imino-3-(phenethylamino)propyl)carbamoyl)-1-methyl-1H-pyrrol-3-yl)-1-methyl-1H-pyrrole-2-carboxamide]	< 5	< 5	> 100	–	15	42	–	–	–	–	–	–	–	–	–	–
[H]/N=C(\CCNC(=O)c1cc(NC(=O)c2cc(NC(=O)c3ccc(C=Cc4ccc5nonc5c4)cc3)cn2C)cn1C)NCCCN(C)C [Ia46, (E)-4-(4-(2-(benzo[c][1,2,5]oxadiazol-5-yl)vinyl)benzamido)-N-(5-((3-((3-(dimethylamino)propyl)amino)-3-iminopropyl)carbamoyl)-1-methyl-1H-pyrrol-3-yl)-1-methyl-1H-pyrrole-2-carboxamide]	25 to 100 (≈ 16.6 to 66.5 µg/mL)	> 100	> 100	4.30 to 5.30	10	2	–	–	–	–	–	–	–	–	–	–
CCCCCCC[N+](C)(C)CCNC(=O)c1cc(NC(=O)c2cc(NC(=O)c3ccc(/C=C/c4cnc5ccccc5c4)cc3)cn2C)cn1C [Ic6, (E)-N,N-dimethyl-N-(2-(1-methyl-4-(1-methyl-4-(4-(2-(quinolin-3-yl)vinyl)benzamido)-1H-pyrrole-2-carboxamido)-1H-pyrrole-2-carboxamido)ethyl)heptan-1-aminium]	–	–	–	–	50	12	–	–	–	–	–	–	–	*** (*** means MIC80 <= 5 μM)	** (** means 5 μM < MIC80 <= 25 μM)	— (— means MIC80 > 100 μM)
